Legend:
[1] = system: labelled 22AG (DNA, G4) AGGGTTAGGGTTAGGGTTAGGG; test: FRET efficiency (FAM/TAMRA); settings: no added Na+ or K+; 30 mM Tris-HCl pH 7.4, 25 °C, 1 bar; 2 µM DNA, 20 µM ThT; Erel rises on binding
[2] = system: 22AG (DNA, G4) AGGGTTAGGGTTAGGGTTAGGG; test: fluorescence titration (ThT titrated with 22AG); settings: 30 mM Tris-HCl pH 7.4, 25 °C, 1 bar, 2.14 µM ThT

binding [1]: yes
Kb ([2]; 60 mM KCl, equivalent independent sites fit): 3.51 ± 0.42 × 10^5 M^-1
Kb ([2]; 60 mM NaCl, equivalent independent sites fit): 0.42 ± 0.04 × 10^5 M^-1
Kb ([2]; no added Na+ or K+, 3 equivalent sites, free DNA mainly unfolded): 0.87 ± 0.06 × 10^5 M^-1
SMILES: Cc1ccc2c(c1)sc(-c1ccc(N(C)C)cc1)[n+]2C
